Assay results: ChEMBL document CHEMBL1157539, “Thousands of chemical starting points for antimalarial lead identification” (Nature, 2010)

What follows are molecules tested on Plasmodium falciparum (assay: GSK_TCMDC: Inhibition of Plasmodium falciparum 3D7 in whole erythrocytes, using parasite LDH activity as an index of growth.). Conditions: Plasmodium falciparum, 3D7.
Assay type: functional, organism-based

`CCN(CC)CCN(Cc1ccc(-c2ccc(C(F)(F)F)cc2)nc1)C(=O)Cn1c(SCc2ccc(F)cc2)nc(=O)c2sccc21` and `Cn1cnc(CCNC(=O)c2ccc(-c3cccc(-c4nc5cc(F)ccc5[nH]4)c3)cc2)c1` are within 1.5-fold of each other in XC50: 0.84 µM for the first, 0.68 µM for the second.

`O=C(NC1c2ccccc2Oc2ccccc21)c1ccccc1O` and `O=C(Nc1ccccc1Cc1ccccc1)c1ccccc1[N+](=O)[O-]` are within 1.5-fold of each other in XC50: 0.844 µM for the first, 0.86 µM for the second.

`Cn1cc(C2CCN(CCCCCNC(=O)/C=C/c3ccc(Cl)c(Cl)c3)CC2)c2cc(O)ccc21` and `CCCCCCN1CCC(CNCc2cccc(Cl)c2)CC1` are within 1.5-fold of each other in XC50: 0.943 µM for the first, 1.22 µM for the second.

`Cc1ccnc(NC(c2cccc(Cl)c2Cl)c2ccc3cccnc3c2O)c1` (centres undefined) and `Cc1cc(-c2c[nH]c3ncc(-c4cccc5ncccc45)cc23)ccc1C(=O)O` are within 1.5-fold of each other in XC50: 1 µM for the first, 0.761 µM for the second.

`CC(C)(C)OC(=O)NCCc1cccc(-c2c[nH]c3ncc(-c4cccc(NS(C)(=O)=O)c4)cc23)c1` and `CS(=O)(=O)CCNCc1cccc(-c2cc3c(Nc4ccc5c(cnn5Cc5ccccc5)c4)ncnc3s2)c1` are within 1.5-fold of each other in XC50: 0.684 µM for the first, 0.553 µM for the second.

`COc1ccc2nccc([C@@H](O)CN3CCC(NCc4cc5cccc(OCc6ccccc6)c5[nH]4)CC3)c2c1` and `NC1CCN(Cc2cccc(-c3cccc(-c4nc5ccccc5[nH]4)c3)c2)C1` (centres undefined) are within 1.5-fold of each other in XC50: 0.899 µM for the first, 0.79 µM for the second.

`COc1cccc(CCNCCCCCCNCCc2ccc(Cl)cc2)c1` and `Fc1cccc(Nc2nc(NCCc3ccc(Cl)cc3)nc(Nc3cccc(F)c3)n2)c1` are within 1.5-fold of each other in XC50: 1.01 µM for the first, 1.07 µM for the second.

Compared with `O=C(Nc1cccc(CN2CCCN(Cc3ccsc3)CC2)c1)c1ccc(-c2ccccc2)cc1`, `O=C(NCC1CCN(CCN2CCC(c3cn(CCO)c4ccccc34)CC2)CC1)c1ccc(-c2ccc(C(F)(F)F)cc2)cc1` is 3.1-fold lower in XC50: 1.34 µM for the first, 0.438 µM for the second.

Compared with `CN1CCC(NCc2cccc(-c3nn(C)c4nc(NC5CCCC5)ncc34)c2)CC1`, `O=C(N[C@@H](Cc1ccccc1)C(=O)NC1CCCCCC1)c1ccc(O)c(-c2ccc(Cl)c(Cl)c2)c1` is 3.1-fold lower in XC50: 1.02 µM for the first, 0.329 µM for the second.

Compared with `Cn1cc(Br)c(-c2cccc(Nc3ccnc4cc(-c5nccs5)ccc34)c2)n1`, `Cc1n[nH]c2cc(Nc3ccnc(Nc4cccc(CN5CCOCC5)c4)n3)ccc12` is 1.6-fold higher in XC50: 0.979 µM for the first, 1.58 µM for the second.

Compared with `NS(=O)(=O)c1ccc(CNc2ccc3ncc(-c4ccc(Cl)cc4)n3n2)cc1`, `OC(CNc1ccnc(Nc2ccc(Cl)cc2)n1)c1ccc(C(F)(F)F)cc1` (centres undefined) is 2.7-fold higher in XC50: 0.284 µM for the first, 0.771 µM for the second.

`Cc1cccc2nc(-c3ccc(-c4ccc(CNCc5cccc(N)c5)cc4)cc3)[nH]c12` and `O=S(=O)(/C=C/c1ccccc1)N(Cc1ccc(-c2ccc(CNCCc3ccccn3)cc2)cc1)CC1CCCCN1` (centres undefined) are within 1.5-fold of each other in XC50: 0.565 µM for the first, 0.742 µM for the second.

Compared with `CCCN(c1ccc(O)c(CN2CCCCC2)c1)c1ccc([N+](=O)[O-])cn1`, `CCN(CCCN1CCCCC1)c1cc(C)nc(Nc2cccc(C(F)(F)F)c2)n1` is 2.8-fold lower in XC50: 0.805 µM for the first, 0.289 µM for the second.

Going from `COc1ccc(Cc2c(C)nc3nc(N)nc(N)c3c2C)cc1` to `CCCc1cc(N2CCC(N(CC)CC)C2)nc(Nc2ccc(OC)cc2)n1` (centres undefined), the XC50 falls from 0.284 µM to 0.168 µM (1.7-fold).

Going from `COc1ccc(-c2ccc(NC(=O)c3cccc(F)c3)cc2)cc1CNC(C)C` to `O=C(CN1CCCC1)Nc1cccc(C(=O)Nc2cccc(C(F)(F)F)c2)c1`, the XC50 falls from 0.808 µM to 0.51 µM (1.6-fold).

Compared with `CCCCc1ccc(-c2ccc3[nH]c(C)c(Br)c(=O)c3c2)cc1`, `Cc1cc2nc(-c3ccc(SCC(=O)Nc4ccc5c(c4)OCCO5)nc3)[nH]c2cc1C` is 9.4-fold higher in XC50: 0.105 µM for the first, 0.989 µM for the second.

`CN1CCCN(c2ccnc3cc4c(cc23)N(C(=O)c2ccccc2Cl)CC4)CC1` and `Cc1ccc(Nc2nc(C)cc(N3CCN(CCc4ccccc4)CC3)n2)cc1` are within 1.5-fold of each other in XC50: 1.18 µM for the first, 0.972 µM for the second.

`N#Cc1ccc(-c2ccc(C(=O)NC3CCN(CCN4CCC(c5cn(CCOC6CCCCO6)c6ccccc56)CC4)CC3)cc2)cc1` (centres undefined) and `Oc1ccc(CCCNc2nc(NCc3ccccc3-c3ccccc3)nc(NC3CCNCC3)n2)cc1` are within 1.5-fold of each other in XC50: 0.599 µM for the first, 0.864 µM for the second.

`Fc1ccc2[nH]ccc(=NN=Cc3ccccc3Cl)c2c1` and `CC(C)c1ccc(CN2CCC(CNC(=O)c3cc(-c4ccccc4F)cs3)C2)cc1` (centres undefined) are within 1.5-fold of each other in XC50: 0.921 µM for the first, 0.993 µM for the second.

`COc1cc(Nc2nccc(N3CCC(NC(=O)Nc4cc(C)ccc4C)C3)n2)cc(OC)c1OC` (centres undefined) gave an XC50 of 1.12 µM.
